Measured values: PubChem BioAssay (NCI)
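Cells were grown in 96-well plates and exposed to each compound for 48 hours at five concentrations; endpoints were interpolated linearly between bracketing concentrations, or set to the highest concentration if not reached. GI50 marks 50% less growth. TGI: concentration producing complete growth inhibition.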

Legend:
Assay in all cases: NCI-60 cell line screen, 48 h
[1] = tested on: UACC-257 melanoma
[2] = tested on: NCI-H23 lung
[3] = tested on: ACHN renal
[4] = tested on: HS 578T breast
[5] = tested on: UACC-62 melanoma
[6] = tested on: MDA-MB-435
[7] = tested on: SK-MEL-2 melanoma
[8] = tested on: M14 melanoma
[9] = tested on: BT-549 breast
[10] = tested on: HOP-62 NSCLC
[11] = tested on: COLO 205 colon
[12] = tested on: HT29 colon
[13] = tested on: A549 NSCLC
[14] = tested on: DU-145 prostate
[15] = tested on: A498 renal
[16] = tested on: NCI-H226 lung
[17] = tested on: TK-10 renal
[18] = tested on: EKVX NSCLC
[19] = tested on: T-47D breast
[20] = tested on: SNB-19 CNS
[21] = tested on: UO-31 renal
[22] = tested on: SF-539 CNS
[23] = tested on: MOLT-4 leukemia
[24] = tested on: HCC-2998 colon
[25] = tested on: MDA-MB-231 breast
[26] = tested on: K-562 leukemia
[27] = tested on: OVCAR-8 ovarian
[28] = tested on: SK-MEL-5 melanoma
[29] = tested on: SW-620 colon
[30] = tested on: HCT-116 colon
[31] = tested on: PC-3 prostate
[32] = tested on: KM12 colon
[33] = tested on: SF-295 CNS
[34] = tested on: NCI-H460 lung
[35] = tested on: NCI-H522 lung
[36] = tested on: MCF7 breast
[37] = tested on: SK-OV-3 ovarian
[38] = tested on: OVCAR-4 ovarian
[39] = tested on: RXF 393 renal
[40] = tested on: NCI/ADR-RES ovarian
[41] = tested on: SF-268 CNS
[42] = tested on: HCT-15 colon
[43] = tested on: U251 CNS
[44] = tested on: OVCAR-5 ovarian
[45] = tested on: SK-MEL-28 melanoma
[46] = tested on: RPMI-8226 leukemia
[47] = tested on: OVCAR-3 ovarian
[48] = tested on: MALME-3M melanoma
[49] = tested on: HOP-92 NSCLC
[50] = tested on: 786-0 renal
[51] = tested on: CCRF-CEM leukemia
[52] = tested on: CAKI-1 renal
[53] = tested on: SN12C renal
[54] = tested on: LOX IMVI melanoma
[55] = tested on: IGROV1 ovarian

For `COc1cc2c(cc1OC)[C@@]1(C)C(=O)c3cc4c(cc3[C@H]1N(C)C2=O)OCO4`, the GI50 [1] was 23.7 µM, the TGI [1] was 91.9 µM and the GI50 [2] was over 100 µM. For the same compound, the TGI [2] was over 100 µM, the GI50 [3] was 52.2 µM and the TGI [3] was over 100 µM. For the same compound, the GI50 [4] was 41.1 µM, the TGI [4] was over 100 µM and the GI50 [5] was 26 µM. The TGI [5] was over 100 µM, the GI50 [6] was over 100 µM and the TGI [6] was over 100 µM. The GI50 [7] was 40.4 µM, the TGI [7] was over 100 µM and the GI50 [8] was 82.6 µM. For the same compound, the TGI [8] was over 100 µM, the GI50 [9] was 29 µM and the TGI [9] was over 100 µM. It also gave a GI50 [10] of over 100 µM, a TGI [10] of over 100 µM and a GI50 [11] of over 100 µM. For the same compound, the TGI [11] was over 100 µM, the GI50 [12] was 88 µM and the TGI [12] was over 100 µM. The GI50 [13] was 62.9 µM, the TGI [13] was over 100 µM and the GI50 [14] was 58.1 µM. The TGI [14] was over 100 µM, the GI50 [15] was 18.6 µM and the TGI [15] was 90.7 µM. It also gave a GI50 [16] of 44.1 µM, a TGI [16] of over 100 µM and a GI50 [17] of 67.3 µM. For the same compound, the TGI [17] was over 100 µM, the GI50 [18] was 55 µM and the TGI [18] was over 100 µM. The GI50 [19] was 37.9 µM, the TGI [19] was over 100 µM and the GI50 [20] was over 100 µM. For the same compound, the TGI [20] was over 100 µM, the GI50 [21] was 34.8 µM and the TGI [21] was over 100 µM. It also gave a GI50 [22] of 24 µM, a TGI [22] of 75.7 µM and a GI50 [23] of 33.3 µM. For the same compound, the TGI [23] was over 100 µM, the GI50 [24] was 74.7 µM and the TGI [24] was over 100 µM. For the same compound, the GI50 [25] was 25 µM, the TGI [25] was over 100 µM and the GI50 [26] was 47.6 µM. The TGI [26] was over 100 µM, the GI50 [27] was 29.3 µM and the TGI [27] was over 100 µM. The GI50 [28] was 45.5 µM, the TGI [28] was over 100 µM and the GI50 [29] was 65.4 µM. For the same compound, the TGI [29] was over 100 µM, the GI50 [30] was 43.6 µM and the TGI [30] was over 100 µM. It also gave a GI50 [31] of 75.2 µM, a TGI [31] of over 100 µM and a GI50 [32] of over 100 µM. For the same compound, the TGI [32] was over 100 µM, the GI50 [33] was 43.3 µM and the TGI [33] was over 100 µM. For the same compound, the GI50 [34] was 37.7 µM, the TGI [34] was over 100 µM and the GI50 [35] was 10.4 µM. It also gave a TGI [35] of 85.6 µM, a GI50 [36] of 65.3 µM and a TGI [36] of over 100 µM. The GI50 [37] was 95.5 µM, the TGI [37] was over 100 µM and the GI50 [38] was over 100 µM. It also gave a TGI [38] of over 100 µM, a GI50 [39] of 26.9 µM and a TGI [39] of over 100 µM. For the same compound, the GI50 [40] was 59.6 µM, the TGI [40] was over 100 µM and the GI50 [41] was 64.6 µM. For the same compound, the TGI [41] was over 100 µM, the GI50 [42] was over 100 µM and the TGI [42] was over 100 µM. It also gave a GI50 [43] of 34.3 µM, a TGI [43] of over 100 µM and a GI50 [44] of over 100 µM. For the same compound, the TGI [44] was over 100 µM, the GI50 [45] was over 100 µM and the TGI [45] was over 100 µM. For the same compound, the GI50 [46] was 33.9 µM, the TGI [46] was over 100 µM and the GI50 [47] was 96.2 µM. It also gave a TGI [47] of over 100 µM, a GI50 [48] of 75.1 µM and a TGI [48] of over 100 µM. The GI50 [49] was 28.8 µM, the TGI [49] was over 100 µM and the GI50 [50] was 54.3 µM. For the same compound, the TGI [50] was over 100 µM, the GI50 [51] was 38 µM and the TGI [51] was over 100 µM. It also gave a GI50 [52] of 37.3 µM, a TGI [52] of over 100 µM and a GI50 [53] of 82.4 µM. The TGI [53] was over 100 µM, the GI50 [54] was 48.4 µM and the TGI [54] was over 100 µM. For the same compound, the GI50 [55] was 33.9 µM and the TGI [55] was over 100 µM.
